Test results from patent publication US10221179B2, “Substituted pyrazoloquinazolinones and pyrroloquinazolinones as allosteric modulators of group II metabotropic glutamate receptors” (DOMAIN THERAPEUTICS, priority 2014, dated 2019).
Structures can show the parent of a compound that is named as a salt.

| melting point | Compound |
| --- | --- |
| > 250 °C | Cl.Cn1c(=O)c2cc(OCCN3CCOCC3)ccc2n2nc(-c3ccnc(C(F)(F)F)c3)cc12 |
| > 250 °C | CN1CCN(c2ccc3c(=O)n(C)c4cc(-c5ccnc(C(F)(F)F)c5)nn4c3c2)CC1.Cl |
| > 250 °C | Cl.Cn1c(=O)c2ccc(N3CCNCC3)cc2n2nc(-c3ccnc(C(F)(F)F)c3)cc12 |
| > 250 °C | Cl.Cn1c(=O)c2ccccc2n2nc(-c3ccnc(C4CCCC4)c3)cc12 |
| > 250 °C | Cl.Cn1c(=O)c2ccccc2n2nc(-c3ccnc(C4CCCCC4)c3)cc12 |
| 230 to 240 °C | COc1ccc2c(c1)c(=O)n(C)c1cc(-c3ccnc(C4CC4)c3)nn21 (as salt: HCl) [Example 100, 2-(2-Cyclopropyl-pyridin-4-yl)-7-methoxy-4-methyl-4H-pyrazolo[1,5-a]quinazolin-5-one] |
| > 250 °C | Cn1c(=O)c2ccccc2n2nc(-c3ccncc3)cc12 (as salt: HCl) [Example 104, 4-Methyl-2-pyridin-4-yl-4H-pyrazolo[1,5-a]quinazolin-5-one] |
| > 250 °C | Cc1cc(-c2cc3n(C)c(=O)c4ccccc4n3n2)cc(C2CC2)n1 (as salt: HCl) [Example 106, 2-(2-Cyclopropyl-6-methyl-pyridin-4-yl)-4-methyl-4H-pyrazolo[1,5-a]quinazolin-5-one] |
| 219 to 223 °C | Cn1c(=O)c2ccccc2n2nc(-c3ccnc(OC4COC4)c3)cc12 [Example 18, 4-Methyl-2-[2-(oxetan-3-yloxy)-pyridin-4-yl]-4H-pyrazolo[1,5-a]quinazolin-5-one] |
| 169 to 173 °C | COCCOc1cc(-c2cc3n(C)c(=O)c4ccccc4n3n2)ccn1 [Example 20, 2-[2-(2-Methoxy-ethoxy)-pyridin-4-yl]-4-methyl-4H-pyrazolo[1,5-a]quinazolin-5-one] |
| 223 to 230 °C | O=c1c2ccccc2n2nc(-c3ccnc(C(F)(F)F)c3)cc2n1CC(F)F [Example 29, 4-(2,2-Difluoro-ethyl)-2-(2-trifluoromethyl-pyridin-4-yl)-4H-pyrazolo[1,5-a]quinazolin-5-one] |
| 165 to 174 °C | COCCn1c(=O)c2ccccc2n2nc(-c3ccnc(C(F)(F)F)c3)cc12 [Example 30, 4-(2-Methoxy-ethyl)-2-(2-trifluoromethyl-pyridin-4-yl)-4H-pyrazolo[1,5-a]quinazolin-5-one] |
| 205 to 210 °C | Cn1c(=O)c2cc(C(F)(F)F)ccc2n2nc(-c3ccnc(C(F)(F)F)c3)cc12 [Example 37] |
| > 250 °C | CC(=O)Nc1ccc2c(c1)c(=O)n(C)c1cc(-c3ccnc(C(F)(F)F)c3)nn21 [Example 42, N-[4-Methyl-5-oxo-2-(2-trifluoromethyl-pyridin-4-yl)-4,5-dihydro-pyrazolo[1,5-a]quinazolin-7-yl]-acetamide] |
| 245 to 250 °C | Cn1c(=O)c2cc(N)ccc2n2nc(-c3ccnc(C(F)(F)F)c3)cc12 [Example 43, 7-Amino-4-methyl-2-(2-trifluoromethyl-pyridin-4-yl)-4H-pyrazolo[1,5-a]quinazolin-5-one] |
| 220 to 225 °C | Cn1c(=O)c2cc(NC3CCC3)ccc2n2nc(-c3ccnc(C(F)(F)F)c3)cc12 [Example 46, 7-Cyclobutylamino-4-methyl-2-(2-trifluoromethyl-pyridin-4-yl)-4H-pyrazolo[1,5-a]quinazolin-5-one] |
| 149 to 163 °C | Cn1c(=O)c2cc(N3CCOCC3)ccc2n2nc(-c3ccnc(C(F)(F)F)c3)cc12 [Example 47, 4-Methyl-7-morpholin-4-yl-2-(2-trifluoromethyl-pyridin-4-yl)-4H-pyrazolo[1,5-a]quinazolin-5-one] |
| 182 to 189 °C | COCCOc1ccc2c(c1)c(=O)n(C)c1cc(-c3ccnc(C(F)(F)F)c3)nn21 [Example 50, 7-(2-Methoxy-ethoxy)-4-methyl-2-(2-trifluoromethyl-pyridin-4-yl)-4H-pyrazolo[1,5-a]quinazolin-5-one] |
